Measured values reported in patent US20090306221A1, “Use for Cannabinoid” (GW PHARMA LIMITED, priority 2006, published 2009).

Biological target: human cannabinoid CB2 receptors (Homo sapiens, UniProt P34972)
Experiment: [35S]GTPγS binding assay, hCB2-transfected CHO cell membranes
Conditions: stimulation of [35S]GTPγS binding
Protocol: CHO cells were stably transfected with cDNA encoding human cannabinoid CB2 receptors and were maintained at 37° C. and 5% CO2 in Dulbecco's Modified Eagle's Medium nutrient mixture.
The assays were carried out with GTPγS binding buffer (50 mM Tris-HCl; 50 mM Tris-Base; 5 mM MgCl2; 1 mM EDTA; 100 mM NaCl; 1 mM DTT; 0.1% BSA) in the presence of [^35S]GTPγS and GDP, in a final volume of 500 μl. Binding was initiated by the addition of [^35S]GTPγS to the tubes. The drugs were incubated in the assay for 60 min at 30° C. The reaction was terminated by a rapid vacuum filtration method using Tris buffer (50 mM Tris-HCl; 50 mM Tris-Base; 0.1% BSA), as described previously, and the radioactivity was quantified by liquid scintillation spectrometry.
The agonism of the CB1 or CB2 receptors by CP55940 results in a response in the cell. This response is the binding of [^35S]GTPγS to the cell membrane.
Changes in the response in the presence of the test compound can be measured in order to determine whether the compound is acting as an agonist, a neutral antagonist or an inverse agonist.

Chain of human cannabinoid CB2 receptors (P34972 whole entry): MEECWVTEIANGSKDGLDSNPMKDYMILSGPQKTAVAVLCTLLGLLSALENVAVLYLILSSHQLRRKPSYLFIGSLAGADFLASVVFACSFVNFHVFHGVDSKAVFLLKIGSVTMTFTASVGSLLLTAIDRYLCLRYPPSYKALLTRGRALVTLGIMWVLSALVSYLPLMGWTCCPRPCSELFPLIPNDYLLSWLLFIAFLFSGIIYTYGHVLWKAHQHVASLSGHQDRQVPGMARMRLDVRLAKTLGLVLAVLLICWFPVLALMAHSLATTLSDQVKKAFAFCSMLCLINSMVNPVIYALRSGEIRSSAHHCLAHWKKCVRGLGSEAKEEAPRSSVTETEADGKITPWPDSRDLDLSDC

In the case of SR144528, the “shift in the log-concentration response curve of CP55940” value is reported as “downward and rightward shift”.
